Assay results from US20120046354A1, “ANTI-OXIDANT LOZENGES FOR THE PREVENTION AND TREATMENT OF RADIATION INDUCED MUCOSITIS, PRECANCEROUS LESIONS, ORAL CANCER AND OTHER ORAL CAVITY MUCOSAL DISORDERS” (priority 2010, published 2012).

How the values were obtained:
[1] = tested on: radiation-induced anal ulceration; test: case of a patient with AIDS and anal carcinoma with radiation-induced anal ulceration, orally administered vitamin A; format: in vivo, human; settings: single patient
Description: (§1) The inventor has described a dramatic case of the patient with AIDS and anal carcinoma who developed a large radiation-induced anal ulceration with marked debility. The patient required high dose opioid therapy for control of anal pain. […] The inventor has also designed, conducted and published a randomized double-blinded trial comparing vitamin A in the form of retinyl palmitate (10,000 IU by mouth for 90 days) to placebo in patients with radiation proctopathy.

[2] = tested on: radiation proctopathy; test: randomized double-blinded trial versus placebo in patients with radiation proctopathy; format: in vivo, human; settings: 10,000 IU by mouth for 90 days
Description: as §1

[3] = tested on: severe mucositis; settings: 250 mg daily for 21 days then 75 mg daily; control group 38 patient-weeks, P=0.025; cited from earlier work
[4] = tested on: mucositis; settings: mouthwash; cited from earlier work
[5] = tested on: mucositis after chemotherapy; settings: 1 mL topical oil (400 mg) twice daily, 18 patients; cited from earlier work
[6] = tested on: leukoplakia; set-up: clinical response rate / response rate among patients with biopsy-proved dysplasia: dose or concentration left out as unconfirmed; settings: cited from earlier work
[7] = tested on: oral leukoplakia; settings: topically applied; cited from earlier work
[8] = tested on: wound healing; settings: following burn injury and surgeries, laboratory animals; cited from earlier work
[9] = three months of therapy, placebo 10 percent

CCCCCCCCCCCCCCCC(=O)OC/C=C(C)/C=C/C=C(C)/C=C/C1=C(C)CCCC1(C)C [retinyl palmitate]
persistence of wound healing and symptomatic relief ([1]; after twelve week oral course): more than six
wound healing and symptomatic relief ([1]; twelve week course, orally administered): complete wound healing and symptomatic relief
rectal symptoms of radiation proctopathy [2]: significantly reduced

CC1=C(/C=C/C(C)=C/C=C/C(C)=C/C=C/C=C(C)/C=C/C=C(C)/C=C/C2=C(C)CCCC2(C)C)C(C)(C)CCC1 [beta-carotene]
severe mucositis [3]: 22 patient-weeks

[H]/N=C(\N/C(=N/[H])NCCCCCCNC(=N)NC(=N)Nc1ccc(Cl)cc1)Nc1ccc(Cl)cc1 [chlorhexidine]
effectiveness for mucositis [4]: limited or possibly no effectiveness

vitamin E
benefit on mucosal lesions compared to soybean oil [5]: benefit

CC1=C(/C=C/C(C)=C/C=C/C(C)=C\C(=O)O)C(C)(C)CCC1 [isotretinoin, 13-cis-retinoic acid]
patients who required decreases in their dosage ([6]; higher dose, 2 mg/kg per day): 47%
patients who developed conjunctivitis ([6]; lower dose, 1 mg/kg per day): 29%
xeroderma ([6]; lower dose, 1 mg/kg per day): common
clinical response rate [6, 9]: 67%
response rate among patients with biopsy-proved dysplasia [6, 9]: 54%
patients with relapse of disease ([6]; within three months of discontinuation of treatment): about half

O=C(c1ccccc1)c1ccc2n1CCC2C(=O)O (centres unmarked) [ketolorac]
treatment of oral leukoplakia [7]: did not appear to effectively treat

Vitamin A
wound healing [8]: accelerate wound healing
